# Results taken from PMC4434909, “In vitro properties of designed antimicrobial peptides that exhibit potent antipneumococcal activity and produces synergism in combination with penicillin” (Scientific Reports, 2015).
# “Also recorded” adds a separate entry of the source. Where no end group is shown, it is not given here.
# Tested on: PRSP
# Assay: Transmission electron microscopy of treated pneumococci
# Format: cell-based, Streptococcus pneumoniae
# Settings: PRSP 5 × 10^10 CFU/ml, peptides 8 mg/ml, four hours 37°C 5% CO2
# Description: An overnight culture of PRSP on sheep blood agar was passaged twice and directly suspended in CAMHB. As sample for TEM required high cell density of about 10^8 to 10^10 to be viewable, the bacteria was prepared to 5 × 10^10 CFU/ml and treated with supra-concentration of peptides at 8 mg/ml for four hours at 37°C under 5% CO2. Cells treated with only water was served as the untreated control. For TEM sample preparation, standard protocol provided by the Electron Microscopic Unit, Faculty of Medicine, University of Malaya was followed. The cells were washed twice with CAMHB before overnight fixation in 4% (v/v) glutaraldehyde, two times postfix washes with cacodylate buffer, incubate, two hours incubation with osmium tetroxide buffer (OsO4 1: 1 cacodylate), and washed twice with cacodylate buffer before overnight incubation in the same buffer. Next, the samples were washed twice with double distilled water, 10 min of uranyl acetate incubation, and washed twice with double distilled water before subjected to dehydration by gradual ethanol series: 35% for 10 min, 50% for 10 min, 70% for 10 min, 95% for 15 min, and three rounds of absolute (100%) ethanol for 15 min. Following this, samples were incubated with two rounds of propylene oxide for 15 min, propylene oxide 1:1 Epon for 1 hr, propylene oxide 1:3 Epon for 2 hrs, overnight incubation with Epon, embedded in Agar 100 resin at 37°C for five hours, and maintained in 60°C until viewing. Ultrathin sectioning were prepared on Reichert Ultramicrotome, copper grids 3.05 mm (300 square mesh) (Agar Scientific), and stained with ethanol-based uranyl acetate and lead citrate for 5 min. The prepared samples were viewed with Leo Libra 120 under standard operating conditions.
row,Substance,changes in pneumococcal cell morphology (TEM)
1,GLFDIWAWWRWRR-NH2 [DM2],filamentous and stacked at one pole of the cell
2,GLFDIWKKLRWRR-NH2 [DM5],Loss of cell wall fragments; also recorded: formation of cytoplasmic-containing inclusion bodies
3,GLFDIWKKWRWRR-NH2 [DM4],Loss of cell wall fragments
4,GLFDIWKWWRWRR-NH2 [DM3],formation of cytoplasmic-containing inclusion bodies
5,GLFDKWAWWRWRR-NH2 [DM1],formation of cytoplasmic-containing inclusion bodies

# Tested on: not given
# Assay: not given
# Settings: not given
row,Substance,difference between lowest and highest detectable MIC against S. pneumoniae [fold]
1,GLFDIWAWWRWRR-NH2 [DM2],32
